{
  "source": "patent US20070066682A1",
  "about": "“Arylalkylamine vanadium (V) salts for the treatment and/or prevention of Diabetes mellitus” (priority 2005, published 2007)",
  "key": {"[1]": {"test_system": "isolated mouse adipocytes", "assay": "Glucose transport (2-DG) in isolated mouse adipocytes", "format": "cell-based", "settings": "100 μM", "description": "Adipose cells from FVB mice were incubated for 45 minutes in basal conditions (Basal) or in the presence of 100 nM insulin (Ins), and different concentrations of hexaquis(benzylammonium) decavanadate (B6V10) in the absence or in the presence of 1 mM semicarbazide (SCZ) and thereafter, 2-DG transport was measured over 5 min."}, "[2]": {"test_system": "streptozotocin-induced diabetic rats", "assay": "Chronic subcutaneous (osmotic minipump) treatment of streptozotocin (45 mg/kg) diabetic rats, glycemia", "format": "in vivo, rat", "settings": "for glycemia during chronic subcutaneous treatment: 2.5 μmol/kg/day by osmotic minipumps, about two weeks, STZ 45 mg/kg rats, dihydrate", "description": "(§1) Male Wistar rats weighting 180-220 g were purchased from Harlan (Interfauna Ibèrica S.A., Spain). Diabetes was induced by a single intraperitoneal injection of a freshly prepared solution of streptozotocin (in some studies the dose was 45 mg/kg body weight and in some others 100 mg/kg body weight dissolved in 50 mM citrate buffer, pH 4.5). Only diabetic animals with glycemia above 300 mg/dl were used. The animals were housed in animal quarters at 22° C., with a 12 h light/12 h dark cycle and were fed ad libitum. All procedures used were approved by the animal ethical committee of the University of Barcelona, Spain. Male mice C57 BL/Ks bearing the db/db mutation (Jackson Laboratories, Bar Harbor, Me.) were purchased from Harlan France (Gannat, France). C57BL/6J male mice were assigned for 16 weeks to very high-fat diet containing (in kcal): 72% from fat, 28% from proteins and <1% from carbohydrates (Burcelin et al., 2002, Am. J. Physiol. Endocrinol. Metab 282: E834-E842).\n(§2) Osmotic minipumps delivering B6V10 (2.5 μmol/kg body wt/day) or decavanadate (2.5 μmol/kg body wt/day) were implanted subcutaneously in diabetic rats anaesthetised by ketamine hydrochloride (95 mg/kg) and xylasine (10 mg/kg). […] Glycemia was measured on arterio-venous blood collected from the tail vessels at 09:00 am for two weeks, before the administration of vanadate. Insulin concentrations were determined before and after treatment. In another set of experiments, B6V10 was orally administered at a single dose of 5 μmol/kg/day during the first week and 10 μmol/kg/day during 2 additional weeks by gastric gavage. A control group received the corresponding decavanadate salt in the absence of benzylamine. At the end of the treatment, animals were sacrificed and the liver, fat pad, heart and lung were kept at −80° C. and the plasma at −20° C. until their use for in vitro analysis.\n(§3) In glucose tolerance tests and in chronic treatments, circulating glucose concentrations were determined by a rapid glucose analyser (Accutrend® Sensor Comfort, Roche, Basel. Switzerland). Plasma insulin (IRI) concentration was determined by ELISA method using a kit obtained from Crystal Chem Inc. (Downers Grove, Ill.). Plasma triglycerides (Biosystems, Barcelona, Spain) and NEFAS (Wako Chemicals, Neuss, Germany) were determined with standard […] methods.\nThe effect of chronic administration of hexaquis(benzylammonium) decavanadate on glycemia from diabetic rats was determined. Thus, diabetes was induced in rats by intravenous administration of streptozotocin, which destroys the β-pancreatic cells that produce insulin.\nChronic in vivo efficacy of B6V10 was evaluated in streptozotocin-induced diabetic rats and in db/db mice. Streptozotocin-induced (45 mg/kg) diabetic rats were subcutaneously treated with hexaquis(benzylammonium) decavanadate (2.5 μmol/kg) (B6V10, solid squares, FIG. 8A) or with decavanadate (2.5 μmol/kg) (V10, open circles, FIG. 8A) delivered subcutaneously by osmotic minipumps implanted in the dorsal region. Diabetic rats were also sham-operated (untreated, solid diamonds, FIG. 8A). […] These experiments were repeated using an oral administration protocol. Streptozotocin-induced (45 mg/kg) diabetic rats were orally treated with hexaquis(benzylammonium) decavanadate (5 μmol/kg from day 0 to day 7 and 10 μmol/kg/day from day 7 to day 17) (B6V10, solid squares, FIG. 8B) or received decavanadate (10 μmol/kg) (V10, open circles, FIG. 8B). […]"}, "[3]": {"test_system": "streptozotocin-induced diabetic rats", "assay": "Chronic oral treatment of streptozotocin (45 mg/kg) diabetic rats, glycemia", "format": "in vivo, rat", "description": "as §1, §2, §3\nThe effect of the oral administration of hexaquis(benzylammonium) decavanadate on glycemia from diabetic rats was also studied. Diabetes was induced in rats by intravenous administration of streptozotocin, and subsequently, a hexaquis(benzylammonium) decavanadate or sodium decavanadate unique dose was administered to the rats. […] After seven days of treatment, the dose was increased at 10 μmol/kg/day which was maintained for an additional ten days. […] Thus, glycemia in sodium decavanadate treated rats was approximately 450 mg/dl and glycemia of hexaquis(benzylammonium) decavanadate treated rats was approximately 250 mg/dl.\nChronic in vivo efficacy of B6V10 was evaluated in streptozotocin-induced diabetic rats and in db/db mice. Streptozotocin-induced (45 mg/kg) diabetic rats were subcutaneously treated with hexaquis(benzylammonium) decavanadate (2.5 μmol/kg) (B6V10, solid squares, FIG. 8A) or with decavanadate (2.5 μmol/kg) (V10, open circles, FIG. 8A) delivered subcutaneously by osmotic minipumps implanted in the dorsal region. Diabetic rats were also sham-operated (untreated, solid diamonds, FIG. 8A). […] These experiments were repeated using an oral administration protocol. Streptozotocin-induced (45 mg/kg) diabetic rats were orally treated with hexaquis(benzylammonium) decavanadate (5 μmol/kg from day 0 to day 7 and 10 μmol/kg/day from day 7 to day 17) (B6V10, solid squares, FIG. 8B) or received decavanadate (10 μmol/kg) (V10, open circles, FIG. 8B). Nondiabetic rats were also untreated (solid triangles, FIG. 8B)."}, "[4]": {"test_system": "mice made glucose intolerant by a high fat diet", "assay": "Glucose tolerance and plasma insulin in high-fat fed mice, acute administration", "format": "in vivo, mouse", "settings": "dihydrate", "description": "Male Wistar rats weighting 180-220 g were purchased from Harlan (Interfauna Ibèrica S.A., Spain). Diabetes was induced by a single intraperitoneal injection of a freshly prepared solution of streptozotocin (in some studies the dose was 45 mg/kg body weight and in some others 100 mg/kg body weight dissolved in 50 mM citrate buffer, pH 4.5). Only diabetic animals with glycemia above 300 mg/dl were used. The animals were housed in animal quarters at 22° C., with a 12 h light/12 h dark cycle and were fed ad libitum. All procedures used were approved by the animal ethical committee of the University of Barcelona, Spain. […]\nas §3\nInsulin and glucose responses during the glucose tolerance test were calculated as the incremental plasma values integrated over a period of 120 min after injection of glucose. […] Data distribution was analyzed by the Kolmogorov-Smirnov test. […]"}},
  "note": "Entries after “also recorded” stand apart in the source; their conditions may differ.",
  "data": [
    {"substance": "hexaquis(benzylammonium) decavanadate (V) dihydrate [Entry B6V10]", "values": [
      {"measurement": "stimulation of glucose transport (% increase)", "setting": "[1]", "value": 93, "unit": "%"},
      {"measurement": "glycemia during chronic subcutaneous treatment", "setting": "[2]", "value": "ameliorated hyperglycemia; also recorded: significant correction of hyperglycemia; also recorded: significant differences in the B6V10 group compared to the untreated group from day 8 of treatment"},
      {"measurement": "glycemia during chronic subcutaneous treatment", "setting": "[2]; listed as hexaquis(benzylammonium) decavanadate", "value": "rapid reduction of the hyperglycemia that was detected after only four days of treatment"},
      {"measurement": "glucose transport of adipocytes isolated from treated rats", "setting": "[2]; fourteen days of treatment, basal conditions", "value": "increased glucose transport under basal conditions equivalent to that seen in the presence of insulin"},
      {"measurement": "glycemia, oral 5 μmol/kg/day", "setting": "[3]; 5 μmol/kg/day for seven days", "value": "moderate decrease of hyperglycemia that was detected after but two days of treatment"},
      {"measurement": "glycemia, oral dose increased to 10 μmol/kg/day", "setting": "[3]; 10 μmol/kg/day for an additional ten days", "value": "additional decrease in glycemia"},
      {"measurement": "glycemia during chronic oral treatment", "setting": "[3]; daily oral, 17 days (5 then 10 μmol/kg/day), STZ 45 mg/kg rats, dihydrate", "value": "ameliorated hyperglycemia; also recorded: significant correction of hyperglycemia"},
      {"measurement": "glycemia", "setting": "[3]; oral treatment, after dose increase to 10 μmol/kg/day", "value": "approximately 250 mg/dl"},
      {"measurement": "glucose tolerance and plasma insulin levels", "setting": "[4]", "value": "ameliorated the pattern of plasma insulin levels; also recorded: amelioration of glucose tolerance and improved plasma insulin levels"}
    ]}
  ]
}
